From ChEMBL document CHEMBL1201862, “PubChem BioAssay data set” (2004)
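Each compound was tested at five concentrations against cells in 96-well plates for 48 hours. GI50 = concentration required for 50% inhibition of growth.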 Active and inactive are the calls of the source. Rule as the data show it: active = GI50 up to about 1.1 µM and inactive = higher.

What was measured:
Assay in all cases: inhibition of tumour cell growth, NCI panel, 48 h
M14 = system: M14
SK-OV-3 = system: SK-OV-3
TK-10 = system: TK-10
LOX IMVI = system: LOX IMVI
UACC-62 = system: UACC-62
SR = system: SR
Hs-578T = system: Hs-578T
HOP-62 = system: HOP-62
DU-145 = system: DU-145
HCT-116 = system: HCT-116
RPMI-8226 = system: RPMI-8226
T47D = system: T47D
Malme-3M = system: Malme-3M
SK-MEL-28 = system: SK-MEL-28
HCT-15 = system: HCT-15
BT-549 = system: BT-549
SK-MEL-5 = system: SK-MEL-5
MDA-MB-435 = system: MDA-MB-435
MDA-N = system: MDA-N
UACC-257 = system: UACC-257
SF-539 = system: SF-539
COLO 205 = system: COLO 205
KM12 = system: KM12
SNB-75 = system: SNB-75
K562 = system: K562
HCC 2998 = system: HCC 2998
MCF7 = system: MCF7
HL-60 = system: HL-60
NCI-H522 = system: NCI-H522
OVCAR-4 = system: OVCAR-4
PC-3 = system: PC-3
OVCAR-8 = system: OVCAR-8
MDA-MB-231 = system: MDA-MB-231
HT-29 = system: HT-29
CAKI-1 = system: CAKI-1
HOP-92 = system: HOP-92
786-0 = system: 786-0
NCI/ADR-RES = system: NCI/ADR-RES
SW-620 = system: SW-620
U-251 = system: U-251
SF-268 = system: SF-268
CCRF-CEM = system: CCRF-CEM
SN12C = system: SN12C
MOLT-4 = system: MOLT-4
SNB-19 = system: SNB-19
IGROV-1 = system: IGROV-1
OVCAR-3 = system: OVCAR-3
SF-295 = system: SF-295
ACHN = system: ACHN
A549 = system: A549
NCI-H23 = system: NCI-H23
RXF 393 = system: RXF 393
NCI-H460 = system: NCI-H460
NCI-H226 = system: NCI-H226
EKVX = system: EKVX
OVCAR-5 = system: OVCAR-5
SK-MEL-2 = system: SK-MEL-2
UO-31 = system: UO-31

`O=C(CC(O)(C(F)(F)F)C(F)(F)F)c1cccs1` was tested, and the GI50 (M14) was > 10 µM (inactive), the GI50 (SK-OV-3) was > 10 µM (inactive) and the GI50 (TK-10) was > 10 µM (inactive). The GI50 (LOX IMVI) was > 10 µM (inactive), the GI50 (UACC-62) was > 10 µM (inactive) and the GI50 (SR) was > 10 µM (inactive). The GI50 (Hs-578T) was > 10 µM (inactive), the GI50 (HOP-62) was > 10 µM (inactive) and the GI50 (DU-145) was > 10 µM (inactive). The GI50 (HCT-116) was > 10 µM (inactive), the GI50 (RPMI-8226) was > 10 µM (inactive) and the GI50 (T47D) was > 10 µM (inactive). The GI50 (Malme-3M) was > 10 µM (inactive), the GI50 (SK-MEL-28) was > 10 µM (inactive) and the GI50 (HCT-15) was > 10 µM. For the same molecule, the GI50 (BT-549) was > 10 µM (inactive), the GI50 (SK-MEL-5) was > 10 µM (inactive) and the GI50 (MDA-MB-435) was > 10 µM (inactive). For the same molecule, the GI50 (MDA-N) was > 10 µM (inactive), the GI50 (UACC-257) was > 10 µM (inactive) and the GI50 (SF-539) was > 10 µM (inactive). The GI50 (COLO 205) was > 10 µM (inactive), the GI50 (KM12) was > 10 µM (inactive) and the GI50 (SNB-75) was > 10 µM (inactive). The GI50 (K562) was > 10 µM (inactive), the GI50 (HCC 2998) was > 10 µM (inactive) and the GI50 (MCF7) was > 10 µM (inactive). The GI50 (HL-60) was > 10 µM (inactive), the GI50 (NCI-H522) was > 10 µM (inactive) and the GI50 (OVCAR-4) was > 10 µM (inactive). For the same molecule, the GI50 (PC-3) was > 10 µM (inactive), the GI50 (OVCAR-8) was > 10 µM (inactive) and the GI50 (MDA-MB-231) was > 10 µM (inactive). For the same molecule, the GI50 (HT-29) was > 10 µM (inactive), the GI50 (CAKI-1) was > 10 µM (inactive) and the GI50 (HOP-92) was > 10 µM (inactive). For the same molecule, the GI50 (786-0) was > 10 µM (inactive), the GI50 (NCI/ADR-RES) was > 10 µM (inactive) and the GI50 (SW-620) was > 10 µM (inactive). For the same molecule, the GI50 (U-251) was > 10 µM (inactive), the GI50 (SF-268) was > 10 µM (inactive) and the GI50 (CCRF-CEM) was > 10 µM (inactive). For the same molecule, the GI50 (SN12C) was > 10 µM (inactive), the GI50 (MOLT-4) was > 10 µM (inactive) and the GI50 (SNB-19) was > 10 µM (inactive). For the same molecule, the GI50 (IGROV-1) was > 10 µM (inactive), the GI50 (OVCAR-3) was > 10 µM (inactive) and the GI50 (SF-295) was > 10 µM (inactive). The GI50 (ACHN) was > 10 µM (inactive), the GI50 (A549) was > 10 µM (inactive) and the GI50 (NCI-H23) was > 10 µM (inactive).

`CCNC1=C(NC(=O)CC)C(=O)c2ccccc2C1=O` was tested, and the GI50 (M14) was 31.7 µM (inactive), the GI50 (SK-OV-3) was > 100 µM (inactive) and the GI50 (TK-10) was > 100 µM (inactive). For the same molecule, the GI50 (RXF 393) was 48.1 µM (inactive), the GI50 (UACC-62) was 74.5 µM (inactive) and the GI50 (SR) was > 100 µM (inactive). The GI50 (Hs-578T) was > 100 µM (inactive), the GI50 (NCI-H460) was > 100 µM (inactive) and the GI50 (HOP-62) was > 100 µM (inactive). The GI50 (DU-145) was > 100 µM (inactive), the GI50 (NCI-H226) was > 100 µM (inactive) and the GI50 (HCT-116) was 36.7 µM (inactive). For the same molecule, the GI50 (RPMI-8226) was > 100 µM (inactive), the GI50 (T47D) was > 100 µM (inactive) and the GI50 (Malme-3M) was 22.9 µM (inactive). The GI50 (SK-MEL-28) was > 100 µM (inactive), the GI50 (HCT-15) was 64.3 µM and the GI50 (BT-549) was > 100 µM (inactive). The GI50 (SK-MEL-5) was 54.1 µM (inactive), the GI50 (MDA-MB-435) was > 10 µM (inactive) and the GI50 (MDA-N) was > 100 µM (inactive). The GI50 (UACC-257) was 30.2 µM (inactive), the GI50 (SF-539) was > 100 µM (inactive) and the GI50 (COLO 205) was 46.5 µM (inactive). The GI50 (KM12) was > 100 µM (inactive), the GI50 (SNB-75) was > 100 µM (inactive) and the GI50 (K562) was > 100 µM (inactive). The GI50 (HCC 2998) was 73.1 µM (inactive), the GI50 (MCF7) was > 100 µM (inactive) and the GI50 (HL-60) was 74.8 µM (inactive). For the same molecule, the GI50 (EKVX) was > 100 µM (inactive), the GI50 (NCI-H522) was 46.1 µM (inactive) and the GI50 (OVCAR-4) was 87.3 µM (inactive). The GI50 (PC-3) was 42.6 µM (inactive), the GI50 (OVCAR-8) was 79.1 µM (inactive) and the GI50 (OVCAR-5) was > 100 µM (inactive). For the same molecule, the GI50 (MDA-MB-231) was > 100 µM (inactive), the GI50 (HT-29) was 34.8 µM (inactive) and the GI50 (HOP-92) was > 100 µM (inactive). For the same molecule, the GI50 (786-0) was > 100 µM (inactive), the GI50 (NCI/ADR-RES) was 58.7 µM (inactive) and the GI50 (SW-620) was 60.4 µM (inactive). The GI50 (U-251) was > 100 µM (inactive), the GI50 (SF-268) was > 100 µM (inactive) and the GI50 (CCRF-CEM) was 56 µM (inactive). The GI50 (SN12C) was 73.3 µM (inactive), the GI50 (MOLT-4) was > 100 µM (inactive) and the GI50 (SNB-19) was > 100 µM (inactive). The GI50 (IGROV-1) was > 100 µM (inactive), the GI50 (OVCAR-3) was 32.1 µM (inactive) and the GI50 (SF-295) was > 100 µM (inactive). For the same molecule, the GI50 (ACHN) was > 100 µM (inactive), the GI50 (A549) was > 100 µM (inactive) and the GI50 (NCI-H23) was 70.8 µM (inactive).

For `CC[C@]12C=CCN3CC[C@@]4(c5cc(Br)c(OC)cc5N(C)[C@H]4[C@@](O)(C(=O)NC(Cc4c[nH]c5ccccc45)C(=O)OC)[C@@H]1O)[C@@H]32` (some centres undefined), the GI50 (SK-MEL-2) was 25.2 µM (inactive), the GI50 (M14) was 20.5 µM (inactive) and the GI50 (SK-OV-3) was > 100 µM (inactive). For the same molecule, the GI50 (RXF 393) was 19.1 µM (inactive), the GI50 (LOX IMVI) was 4.6 µM (inactive) and the GI50 (UACC-62) was 24.3 µM (inactive). For the same molecule, the GI50 (SR) was 4.33 µM (inactive), the GI50 (Hs-578T) was 58.3 µM (inactive) and the GI50 (HOP-62) was 12.6 µM (inactive). For the same molecule, the GI50 (DU-145) was 35.2 µM (inactive), the GI50 (NCI-H226) was 10.8 µM (inactive) and the GI50 (HCT-116) was 7.08 µM (inactive). The GI50 (RPMI-8226) was 2.94 µM (inactive), the GI50 (T47D) was 5.2 µM (inactive) and the GI50 (Malme-3M) was 11.6 µM (inactive). For the same molecule, the GI50 (SK-MEL-28) was 92.9 µM (inactive), the GI50 (HCT-15) was 5.74 µM and the GI50 (BT-549) was 7.94 µM (inactive). For the same molecule, the GI50 (SK-MEL-5) was 7.31 µM (inactive), the GI50 (MDA-MB-435) was 26.2 µM (inactive) and the GI50 (MDA-N) was 23.3 µM (inactive). For the same molecule, the GI50 (SF-539) was 16.4 µM (inactive), the GI50 (COLO 205) was 3.46 µM (inactive) and the GI50 (KM12) was 11 µM (inactive). For the same molecule, the GI50 (SNB-75) was > 100 µM (inactive), the GI50 (K562) was 5.37 µM (inactive) and the GI50 (MCF7) was 12.3 µM (inactive). For the same molecule, the GI50 (HL-60) was 13.5 µM (inactive), the GI50 (EKVX) was 18.4 µM (inactive) and the GI50 (NCI-H522) was 8.83 µM (inactive). The GI50 (OVCAR-4) was 20.5 µM (inactive), the GI50 (PC-3) was 8.2 µM (inactive) and the GI50 (OVCAR-8) was 6.59 µM (inactive). For the same molecule, the GI50 (OVCAR-5) was 71.4 µM (inactive), the GI50 (MDA-MB-231) was 30.6 µM (inactive) and the GI50 (HT-29) was 7.89 µM (inactive). The GI50 (CAKI-1) was 86.1 µM (inactive), the GI50 (HOP-92) was 22.3 µM (inactive) and the GI50 (786-0) was 45.5 µM (inactive). The GI50 (NCI/ADR-RES) was 7.91 µM (inactive), the GI50 (SW-620) was 89.7 µM (inactive) and the GI50 (U-251) was 5.04 µM (inactive). For the same molecule, the GI50 (SF-268) was 6.15 µM (inactive), the GI50 (CCRF-CEM) was 5.62 µM (inactive) and the GI50 (SN12C) was 29.4 µM (inactive). For the same molecule, the GI50 (UO-31) was 20.8 µM (inactive), the GI50 (MOLT-4) was 2.87 µM (inactive) and the GI50 (SNB-19) was 33.2 µM (inactive). For the same molecule, the GI50 (IGROV-1) was 19.4 µM (inactive), the GI50 (OVCAR-3) was 9.16 µM (inactive) and the GI50 (SF-295) was 9.46 µM (inactive). The GI50 (ACHN) was 17.5 µM (inactive), the GI50 (A549) was 11.8 µM (inactive) and the GI50 (NCI-H23) was 45.1 µM (inactive).
